From ChEMBL document CHEMBL5726146, “Sulfone amide linked benzothiazole inhibitors of endothelial lipase” (2019)

Molecular target: T1, Endothelial lipase (Homo sapiens, UniProt Q9Y5X9)
T1 sequence (Q9Y5X9 whole entry): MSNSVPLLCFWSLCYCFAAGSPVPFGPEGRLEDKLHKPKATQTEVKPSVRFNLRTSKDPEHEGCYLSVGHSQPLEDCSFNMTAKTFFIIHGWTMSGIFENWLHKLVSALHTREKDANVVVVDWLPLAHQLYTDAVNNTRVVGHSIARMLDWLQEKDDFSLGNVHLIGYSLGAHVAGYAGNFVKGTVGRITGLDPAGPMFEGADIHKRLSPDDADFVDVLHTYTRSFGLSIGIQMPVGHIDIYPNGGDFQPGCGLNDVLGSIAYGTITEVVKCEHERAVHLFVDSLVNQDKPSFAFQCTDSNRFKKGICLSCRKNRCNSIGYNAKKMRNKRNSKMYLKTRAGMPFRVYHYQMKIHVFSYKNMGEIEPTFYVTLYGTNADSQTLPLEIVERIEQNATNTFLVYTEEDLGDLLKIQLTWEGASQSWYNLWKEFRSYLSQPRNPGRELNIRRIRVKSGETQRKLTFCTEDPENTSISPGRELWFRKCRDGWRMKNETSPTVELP
Test: Biological Activity: Endothelial lipase (EL) and hepatic lipase (HL) activities were measured using a fluorescent substrate, A10070, (Invitrogen, CA) doped into an artificial vesicle containing DMPG (Avanti Polar Lipids) as the excipient. Vesicles were prepared by combining 571 μL of 29 mM DMPG in a 1:1 mixture of MeOH and CHCl3 with 2000 μL of 1 mM A10070 in a 1:1 mixture of MeOH and CHCl3. The mixture was dried under nitrogen in multiple vials then resuspended in 20 mL total volume of 50 mM HEPES pH 8.0 buffer containing 50 mM NaCl and 0.2 mM EDTA. The sample was allowed to sit at room temperature for 15 min and then was sonicated 3×4 mins on ice with a Branson Sonicator using duty cycle 1. This preparation provides vesicles with a mole fraction of 0.11 for the FRET substrate.The enzymatic assay was measured using 384-well white Optiplates. Each well contained 20 μL of assay buffer (50 mM HEPES pH 8.0, 50 mM NaCl and 1 mM CaCl2) and 0.25 μL of a DMSO solution containing a compound of interest. EL or HL (10 μL) was added and allowed to incubate with the compound for 30 min at 37° C. The source of EL was conditioned media obtained from HT-1080 cells that were transformed using RAGE technology (Athersys) to overexpress endogenous EL, and HL was partially purified from conditioned media obtained from COS cells overexpressing HL. The reaction was started by the addition of 10 μL of a 1:10 dilution of vesicles. The final total reaction volume was […]. The reaction rates were measured on a Gemini plate reader with an excitation wavelength of 490 nm and an emission wavelength of 530 nm. Readings were taken over a period of 60 minutes, and the slope between 300 and 900 secs of the readout was used to calculate the rate of the reaction.

| SMILES | IC50 [nM] |
| --- | --- |
| O=C(CNC(=O)C(c1nc2cc(F)c(-c3ccc(F)nc3)cc2s1)S(=O)(=O)c1ccccc1F)NC1CC1 (configuration not stated) | 58 |
| CS(=O)(=O)C(C(=O)NCC(=O)NC1CC1)c1nc2cc(F)c(-c3ccc(C(=O)NCCc4ccccc4)cc3)cc2s1 (configuration not stated) | 1 |
| COCCS(=O)(=O)C(C(=O)NCC(=O)NC1CC1)c1nc2cc(-c3ccc(C)nc3)ccc2s1 (configuration not stated) | 34 |
| COCCS(=O)(=O)C(C(=O)NCC(=O)NC1CC1)c1nc2cc(F)c(-c3ccc4c(c3)CCN4)cc2s1 (configuration not stated) | 3 |
| COCCS(=O)(=O)C(C(=O)NCC(=O)NC1CC1)c1nc2c(F)cc(-c3cccnc3F)cc2s1 (configuration not stated) | 106 |
| COCCS(=O)(=O)C(C(=O)NCC(=O)NC1CC1)c1nc2cc(-c3ccc(OC(C)C)nc3)ccc2s1 (configuration not stated) | 11 |
| COCCS(=O)(=O)C(C(=O)NCC(=O)NC1CC1)c1nc2ccc(-c3cccnc3C(F)(F)F)cc2s1 (configuration not stated) | 37 |
| C[C@H]1CN(C(=O)c2ccc(-c3ccc4nc(C(C(=O)NCC(=O)NC5CC5)S(C)(=O)=O)sc4c3)cc2)CCO1 (some centres not stated) | 31 |
| CS(=O)(=O)C(C(=O)NCC(=O)NC1CC1)c1nc2cc(F)c(-c3ccc(=O)n(-c4ccccc4)c3)cc2s1 (configuration not stated) | 6 |
| COCCS(=O)(=O)C(C(=O)NCC(=O)NC1CC1)c1nc2ccc(-c3ccc(C(N)=O)c(Cl)c3)cc2s1 (configuration not stated) | 33 |
| O=C(CNC(=O)C(c1nc2ccc(-c3ccc(F)nc3)cc2s1)S(=O)(=O)C1CCOCC1)NC1CC1 (configuration not stated) | 47 |
| Cn1nccc1-c1cc2sc(C(C(=O)NCC(=O)NC3CC3)S(C)(=O)=O)nc2cc1F (configuration not stated) | 26 |
| CC(=O)Nc1ccc(-c2cc3sc(C(C(=O)NCC(=O)NC4CC4)S(C)(=O)=O)nc3cc2F)cc1 (configuration not stated) | 9 |
| CS(=O)(=O)C(C(=O)NCC(=O)NC1CC1)c1nc2cc(F)c(-c3ccc4c(c3)CCCN4C(=O)Cc3c(F)cccc3F)cc2s1 (configuration not stated) | 7 |
| COCCS(=O)(=O)C(C(=O)NCC(=O)NC1CC1)c1nc2ccc(-c3ccc(N4CCCC4)nc3)cc2s1 (configuration not stated) | 118 |
| CS(=O)(=O)C(C(=O)NCC(=O)NC1CC1)c1nc2cc(-c3ccccc3)c(F)cc2s1 (configuration not stated) | 4 |
| O=C(CNC(=O)C(c1nc2ccc(-c3cccnc3F)cc2s1)S(=O)(=O)c1ccccc1)NC1CC1 (configuration not stated) | 102 |
